{
  "source": "ChEMBL document CHEMBL1156596",
  "about": "“Overcoming undesirable CYP1A2 inhibition of pyridylnaphthalene-type aldosterone synthase inhibitors: influence of heteroaryl derivatization on potency and selectivity” (J Med Chem, 2008)",
  "key": {"[1]": {"assay": "Tmax in Wistar rat at 5 mg/kg, po", "assay_type": "ADME, organism-based", "set-up": "dose 5 mg/kg, route oral", "details": "in vivo"}, "[2]": {"assay": "Cmax in Wistar rat at 5 mg/kg, po", "assay_type": "ADME, organism-based", "set-up": "dose 5 mg/kg, route oral", "details": "in vivo"}, "CYP1A2": {"biological_target": "T1, CYP1A2 (Homo sapiens, UniProt P05177)", "T1 sequence (P05177 whole entry)": "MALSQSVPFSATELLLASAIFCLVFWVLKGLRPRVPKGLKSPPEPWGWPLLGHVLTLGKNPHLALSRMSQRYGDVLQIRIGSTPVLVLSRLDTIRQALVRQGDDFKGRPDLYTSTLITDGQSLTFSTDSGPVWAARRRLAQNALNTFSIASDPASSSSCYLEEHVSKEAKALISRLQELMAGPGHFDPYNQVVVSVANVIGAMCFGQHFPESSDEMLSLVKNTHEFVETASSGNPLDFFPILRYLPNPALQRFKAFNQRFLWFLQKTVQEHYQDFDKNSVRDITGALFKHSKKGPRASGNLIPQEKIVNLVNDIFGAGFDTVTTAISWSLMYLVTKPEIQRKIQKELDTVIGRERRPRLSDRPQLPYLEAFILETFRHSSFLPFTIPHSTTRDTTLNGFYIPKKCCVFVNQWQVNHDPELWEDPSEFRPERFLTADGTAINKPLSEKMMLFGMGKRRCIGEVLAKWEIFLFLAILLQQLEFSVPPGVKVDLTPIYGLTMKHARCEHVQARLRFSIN", "assay": "Inhibition of human recombinant CYP1A2 expressed in insect microsomes at 2 uM", "assay_type": "ADME, Microsome"}, "in vivo": {"assay": "in vivo", "details": "Wistar, rat, po, 5 mg/kg"}, "[3]": {"assay": "Terminal half life in Wistar rat at 5 mg/kg, po", "assay_type": "ADME, organism-based", "set-up": "dose 5 mg/kg, route oral", "details": "in vivo"}, "[4]": {"biological_target": "T2, Cytochrome P450 11B2, mitochondrial (Homo sapiens, UniProt P19099)", "T2 sequence (P19099 whole entry)": "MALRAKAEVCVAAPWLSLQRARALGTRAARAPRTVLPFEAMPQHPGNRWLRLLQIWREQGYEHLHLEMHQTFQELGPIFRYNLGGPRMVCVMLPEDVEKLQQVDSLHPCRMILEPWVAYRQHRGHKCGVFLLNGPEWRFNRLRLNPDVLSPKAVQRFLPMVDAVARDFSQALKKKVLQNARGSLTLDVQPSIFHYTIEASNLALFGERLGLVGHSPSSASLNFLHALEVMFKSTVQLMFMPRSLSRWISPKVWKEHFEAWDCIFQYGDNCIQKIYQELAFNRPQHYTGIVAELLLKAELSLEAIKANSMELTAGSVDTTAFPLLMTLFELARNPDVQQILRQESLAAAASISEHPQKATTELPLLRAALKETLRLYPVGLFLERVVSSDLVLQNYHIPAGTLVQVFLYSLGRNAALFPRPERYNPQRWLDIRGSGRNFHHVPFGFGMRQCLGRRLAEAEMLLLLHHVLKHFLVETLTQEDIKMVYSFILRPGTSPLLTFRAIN", "assay": "Inhibition of human CYP11B2 expressed in hamster V79 MZh cells at 500 nM", "assay_type": "cell-based", "details": "V79MZh"}, "[5]": {"assay": "Plasma concentration in Wistar rat plasma at 5 mg/kg, po after 6 hrs", "assay_type": "ADME, organism-based", "set-up": "dose 5 mg/kg, route oral"}, "[6]": {"assay": "Plasma concentration in Wistar rat plasma at 5 mg/kg, po after 2 hrs", "assay_type": "ADME, organism-based", "set-up": "dose 5 mg/kg, route oral"}, "[7]": {"assay": "Plasma concentration in Wistar rat plasma at 5 mg/kg, po after 4 hrs", "assay_type": "ADME, organism-based", "set-up": "dose 5 mg/kg, route oral"}, "[8]": {"assay": "Plasma concentration in Wistar rat plasma at 5 mg/kg, po after 1 hr", "assay_type": "ADME, organism-based", "set-up": "dose 5 mg/kg, route oral"}, "[9]": {"assay": "Plasma concentration in Wistar rat plasma at 5 mg/kg, po after 8 hrs", "assay_type": "ADME, organism-based", "set-up": "dose 5 mg/kg, route oral"}, "Homo sapiens": {"organism": "Homo sapiens", "assay": "Selectivity ratio of IC50 for human CYP11B1 to IC50 for human CYP11B2"}, "CYP11B1": {"biological_target": "T3, CYP11B1 (Homo sapiens, UniProt P15538)", "T3 sequence (P15538 whole entry)": "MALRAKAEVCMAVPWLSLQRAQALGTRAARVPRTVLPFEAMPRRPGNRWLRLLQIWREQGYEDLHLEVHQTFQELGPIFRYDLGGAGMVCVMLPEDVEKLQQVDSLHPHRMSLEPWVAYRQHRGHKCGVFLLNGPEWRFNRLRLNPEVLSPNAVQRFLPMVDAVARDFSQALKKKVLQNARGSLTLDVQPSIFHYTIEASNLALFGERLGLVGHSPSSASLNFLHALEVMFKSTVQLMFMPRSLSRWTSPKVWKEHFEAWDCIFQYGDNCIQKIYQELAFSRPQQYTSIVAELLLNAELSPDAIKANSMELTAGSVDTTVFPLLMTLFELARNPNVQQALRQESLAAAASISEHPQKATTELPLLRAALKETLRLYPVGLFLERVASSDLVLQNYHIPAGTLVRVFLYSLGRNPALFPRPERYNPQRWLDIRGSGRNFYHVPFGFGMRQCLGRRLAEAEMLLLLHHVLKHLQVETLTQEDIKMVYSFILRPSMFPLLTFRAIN", "assay": "in vitro", "details": "hamster V79 MZh cells expressing human CYP11B1"}, "[10]": {"biological_target": "T2, Cytochrome P450 11B2, mitochondrial"}},
  "data": [
    {"smiles": "N#Cc1ccc(C2CCCc3cncn32)cc1", "note": "(stereo not given) [FADROZOLE]", "values": [
      {"measurement": "Tmax", "setting": "[1]", "value": 1, "unit": "h"},
      {"measurement": "Cmax", "setting": "[2]", "value": 454, "unit": "ng/mL"},
      {"measurement": "inhibition at 2 µM", "setting": "CYP1A2", "value": 8, "unit": "%"},
      {"measurement": "AUC(0-inf)", "setting": "in vivo; in vivo", "value": 3580, "unit": "ng·h/mL"},
      {"measurement": "half-life", "setting": "[3]", "value": 2.2, "unit": "h"}
    ]},
    {"smiles": "COc1ccc2cc(-c3cncc(C(=O)O)c3)ccc2c1", "values": [
      {"measurement": "inhibition at 0.5 µM", "setting": "[4]", "value": 7, "unit": "%"}
    ]},
    {"smiles": "COc1ccc2cc(-c3cccnc3)ccc2c1", "values": [
      {"measurement": "Tmax", "setting": "[1]", "value": 1, "unit": "h"},
      {"measurement": "concentration at 6 h", "setting": "[5]", "value": 133, "unit": "ng/mL"},
      {"measurement": "concentration at 2 h", "setting": "[6]", "value": 145, "unit": "ng/mL"},
      {"measurement": "Cmax", "setting": "[2]", "value": 222, "unit": "ng/mL"},
      {"measurement": "concentration at 4 h", "setting": "[7]", "value": 124, "unit": "ng/mL"},
      {"measurement": "inhibition at 2 µM", "setting": "CYP1A2", "value": 98, "unit": "%"},
      {"measurement": "concentration at 1 h", "setting": "[8]", "value": 84.5, "unit": "ng/mL"},
      {"measurement": "AUC(0-inf)", "setting": "in vivo; plasma", "value": 1540, "unit": "ng·h/mL"},
      {"measurement": "half-life", "setting": "[3]", "value": 5.4, "unit": "h"},
      {"measurement": "concentration at 8 h", "setting": "[9]", "value": 59.2, "unit": "ng/mL"}
    ]},
    {"smiles": "N#Cc1ccc2cc(-c3cccnc3)ccc2c1", "values": [
      {"measurement": "Ratio IC50", "setting": "Homo sapiens", "value": 239},
      {"measurement": "IC50", "setting": "CYP11B1", "value": 691, "unit": "nM"},
      {"measurement": "IC50", "setting": "[10]", "value": 2.9, "unit": "nM"},
      {"measurement": "inhibition at 2 µM", "setting": "CYP1A2", "value": 97, "unit": "%"}
    ]}
  ]
}
